According to US20190038628A1, “USE OF INHIBITORS OF THE ACTIVITY OR FUNCTION OF PI3K FOR THE TREATMENT OF PRIMARY SJOGREN'S SYNDROME” (Novartis AG, priority 2016, published 2019):
pIC50: −log10 of the molar value. Like-named read-outs stand apart in the source and are kept apart here.

System: Mouse BCR transgenic B cells
Assay: Proinflammatory cytokine release of mouse BCR transgenic B cells
Format: cell-based
Conditions: Mouse BCR tg B cell, stimulus HEL, mean of at least two experiments
Text: Purification of CD19^+ splenic B cells from MD4 HEL BcR Tg mice MD4 HEL BcR transgenic B10.BR (MD4 B10.BR) mice were a kind gift from Prof. Jose Moreno (Research Unit on Autoimmune Diseases, Centro Medico Nacional Siglo XXI, Mexico).
The spleens were isolated from MD4 B10.BR and non-transgenic litter control B10.BR mice after sacrificed by exposure to excess amount of isoflurane. The isolated spleens were suspended in RPMI1640 (Invitrogen, #31870), and dissociated by GentleMACS Dissociator (Miltenyi Biotec), and filtrated with Cell Strainer (BD Falcon, 70 μm mesh, #352350). […] The purity was determined via the proportion of CD19 cells in the separated fraction in FACS analysis, and was more than 95%.
FACS Data was analyzed, and their mean fluorescence intensity (MFI) were calculated with FlowJo software (Tree Star Inc). The IC50 values were calculated with GraphPad PRISM ver 6.0 software (GraphPad Software Inc).
One million of B cells purified from MD4 B10.BR as written in the section 2.1 was suspended in 200 μl of complete culture medium, and stimulated with 100 μM of HEL proteins with soluble CD40 ligand at 37° C., 5% CO2 for 48 hours. […] The data are represented as the mean of concentration (pg/ml) from triplicate samples, and IC50 values are calculated as described above. […]

Question: Which results are given for CCC(=O)N1CC[C@H](Nc2ncnc3c2CN(c2cnc(OC)c(C(F)(F)F)c2)CC3)C1 [Compound A, 1-{(S)-3-[6-(6-Methoxy-5-trifluoromethyl-pyridin-3-yl)-5,6,7,8-tetrahydro-pyrido[4,3-d]pyrimidin-4-ylamino]-pyrrolidin-1-yl}-propan-1-one]?
Answer: pIC50 (read-out: IC50 IL-6): 7.66; pIC50 (read-out: IC50 TNFα): 7.55
